Assay results from BigSolDB 2.1.

CC(=O)Oc1ccccc1C(=O)Nc1ncc([N+](=O)[O-])s1
solubility (mole fraction)
Conditions | 278.15 K | 283.15 K | 288.15 K | 293.15 K | 298.15 K | 303.15 K | 308.15 K | 313.15 K | 318.15 K | 323.15 K
in DMF | 0.0665 | 0.0716 | 0.077 | 0.0825 | 0.0882 | 0.0934 | 0.0992 | 0.106 | 0.112 | 0.118
in NMP | 0.0891 | 0.093 | 0.0964 | 0.1 | 0.104 | 0.107 | 0.112 | 0.116 | 0.119 | 0.123
in isopropanol | 0.000205 | 0.000239 | 0.000277 | 0.000319 | 0.000367 | 0.000419 | 0.000476 | 0.000542 | 0.000607 | 0.000684
in water | 1.26e-07 | 1.66e-07 | 2.23e-07 | 2.93e-07 | 3.81e-07 | 4.98e-07 | 6.34e-07 | 8.11e-07 | 9.9e-07 | 1.24e-06
